Assay results as given in patent US5167963A, “8,10-dideazatetrahydrofolic acid derivatives” (SRI International, priority 1990, dated 1992).
Like-named read-outs stand apart in the source and are kept apart here.

What was measured:
[1] = test system: L1210 cells; test: Growth inhibition assay for L1210 cells; format: cell-based; conditions: Mus musculus; 72 hours, murine L1210 cells, RPMI 1640 with 10% fetal calf serum
Excerpt: Murine L1210 cells were obtained as intraperitoneal ascites suspensions from BD2F1 mice. […] Cultures in the logarithmic stage of growth were harvested, resuspended and exposed to test compounds at varying concentrations. Growth of controls was monitored to verify that the growth pattern was normal.

[2] = test system: dihydrofolate reductase; conditions: in words; from prior literature/patents; cited from earlier work
[3] = target: T1, glycinamide ribotide formyl transferase (FGAR) (Lacticaseibacillus casei, UniProt A0AAN1KEB7); test: Enzyme assay for FGAR (glycinamide ribotide formyl transferase) inhibition; format: biochemical, Lactobacillus casei; conditions: in words
T1 sequence (A0AAN1KEB7 1-189): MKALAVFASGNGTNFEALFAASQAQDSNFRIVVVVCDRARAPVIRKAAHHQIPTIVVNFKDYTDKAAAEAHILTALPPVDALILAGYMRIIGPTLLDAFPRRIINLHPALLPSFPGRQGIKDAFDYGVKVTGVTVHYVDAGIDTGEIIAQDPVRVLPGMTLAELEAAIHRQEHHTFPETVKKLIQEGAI
Protocol: Inhibition of the glycinamide ribotide formyl transferase (FGAR) and amino-imidazole carboxamide ribotide formyl transferase (AICAR) enzymes was determined by the following test procedure.
Lactobacillus casei extract protein (20 μg) is incubated with 45 μmol of Tris-HCl buffer; pH 7.5, 90 μmol of 2-mercaptoethanol, 0.20 μmol of α,β-glycine-amideribotide and 50 nmol of (6R)-10-formyltetrahydrofolate in 0.9 ml for 1 minute at 30° C. The formation of tetrahydrofolate is followed by change in the ultraviolet maximum at 298 nm. For assay of inhibition the test compounds are added along with the 6R-10-formyl FAHy and the concentration that inhibits the reaction by 50% (Ic50) is determined.

[4] = Cytotoxicity (focus and potency of cytotoxic action); format: cell-based; conditions: in words
[5] = test system: L1210 leukemia; conditions: in words, Taylor et al, U.S. Pat. No. 4,684,653, cited from earlier work
[6] = test system: thymidylate synthase; conditions: in words; J. A. R. Mead et al., Cancer Research (1966); cited from earlier work
[7] = in words; DeGraw et al; cited from earlier work

Compound | IC50 [1] [nM] | inhibition of dihydrofolate reductase [2] | further results
Nc1nc2c(c(=O)[nH]1)NC(CCc1ccc(C(=O)N[C@@H](CCC(=O)O)C(=O)O)cc1)CC2 (stereo partly drawn) [Compound 3, 8,10-Dideaza-5,6,7,8-tetrahydrofolic Acid] | 96.8 |  | 
CN(Cc1cnc2nc(N)nc(N)c2n1)c1ccc(C(=O)N[C@@H](CCC(=O)O)C(=O)O)cc1 [Compound 1, methotrexate] | 4.3 | inhibiting dihydrofolate reductase (DHFR) | 
CN1c2c(nc(N)[nH]c2=O)CCC1CCc1ccc(C(=O)N[C@@H](CCC(=O)O)C(=O)O)cc1 (stereo partly drawn) [Compound 4, 5-Methyl-8,10-dideaza-5,6,7,8-tetrahydrofolic Acid] | 38.2 |  | 
Nc1nc2ccc(CNc3ccc(C(=O)N[C@@H](CCC(=O)O)C(=O)O)cc3)nc2c(=O)[nH]1 [8-deazafolic acid] |  | did not significantly affect DHFR | 
Nc1nc2c(c(=O)[nH]1)CC(CCc1ccc(C(=O)N[C@@H](CCC(=O)O)C(=O)O)cc1)CC2 (stereo partly drawn) [5,8, 10-trideaza FH4] |  |  | inhibition of glycinamide ribotide transformylase (GAR transformylase, FGAR) [3]: devoid of enzyme or cytotoxic action; cytotoxic action [4]: devoid of enzyme or cytotoxic action
Nc1nc2c(c(=O)[nH]1)CC(CCc1ccc(C(=O)N[C@@H](CCC(=O)O)C(=O)O)cc1)CN2 (stereo partly drawn) [Compound 2, N-(4-[2-(2-amino-4-hydroxy-5,6,7,8-tetrahydropyrido[2,3-d]pyrimidin-6-yl)-ethyl]benzoyl)-L-glutamic acid] | 42 | weak inhibitor of dihydrofolate reductase | activity against L1210 leukemia ([5]; listed as N-(4-[2-(2-amino-4-hydroxy-5,6,7,8-tetrahydropyrido[2,3-d]pyrimidin-6-yl)- e thy): good activity against L-1210 leukemia which is comparable to methotrexate; activity against L1210 leukemia ([5]; listed as N-(4-[2-(2-amino-4-hydroxy-5,6,7,8-tetrahydropyrido[2,3-d]pyrimidin-6-yl)- ethyl): good activity against L1210 leukemia which is comparable to methotrexate; inhibition of glycinamide ribotide transformylase (GAR transformylase, FGAR) ([3]; listed as DDTHF): potent inhibitor of GAR transformylase; inhibition of glycinamide ribotide transformylase (GAR transformylase, FGAR) ([3]; listed as Taylor et al compound): clearly an inhibitor of FGAR; cytotoxic action [4]: potent cytotoxin
Nc1nc2c(c(=O)[nH]1)N[C@@H](CCNc1ccc(C(=O)NC(CCC(=O)O)C(=O)O)cc1)CN2 (stereo partly drawn) [tetrahydrohomofolate] |  |  | inhibition of thymidylate synthetase in vitro [6]: potent inhibitor
Nc1nc2c(c(=O)[nH]1)N(C=O)C(CCc1ccc(C(=O)NC(CCC(=O)O)C(=O)O)cc1)CC2 (stereo not drawn) [Compound 5] | 657 |  | 
Nc1nc2ccc(CCc3ccc(C(=O)N[C@@H](CCC(=O)O)C(=O)O)cc3)nc2c(=O)[nH]1 [8,10-dideazafolic acid] |  | did not significantly affect DHFR | antifolate activity [7]: active antifolates
